Assay results published in patent US12624018B1, “Inhibitors of RIPK2 and medical uses thereof” (Odyssey Therapeutics, Inc., priority 2022, dated 2026).
pIC50: −log10 of the molar value.

Each compound was assayed against T1, RIPK2 enzyme (Homo sapiens, UniProt O43353) (assay: RIPK2 inhibition (ADP-Glo Kinase Assay)). Conditions: RIPK2 5 nM, ATP 150 μM, MBP substrate, read-out: RIPK2 IC50.
T1 construct: purchased Carna 09-128
Format: biochemical
Method in brief: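 Swine MBP substrate; compound and 5 nM RIPK2 first mixed for 30 min at room temperature; buffer pH 7.5 HEPES 50 mM with 10 mM MgCl2, 2 mM DTT, 1 mM EGTA, Brij-35, BSA.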

T1 sequence (O43353 1-299 limits assumed): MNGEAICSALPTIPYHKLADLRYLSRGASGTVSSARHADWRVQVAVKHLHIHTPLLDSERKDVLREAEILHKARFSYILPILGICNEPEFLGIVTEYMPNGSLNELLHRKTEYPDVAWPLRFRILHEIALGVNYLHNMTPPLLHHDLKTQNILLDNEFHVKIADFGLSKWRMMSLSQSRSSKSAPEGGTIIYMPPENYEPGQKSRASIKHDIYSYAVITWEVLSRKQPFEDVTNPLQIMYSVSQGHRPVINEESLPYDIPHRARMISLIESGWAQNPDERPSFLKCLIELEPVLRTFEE

Structure (SMILES)	pIC50
CC(C)(C)c1cc(NC(=O)Cc2ncc(Oc3ncnc4ccc(F)cc34)cc2F)ncn1 [Compound 52, N-(6-(tert-butyl)pyrimidin-4-yl)-2-(3-fluoro-5-((6-fluoroquinazolin-4-yl)oxy)pyridin-2-yl)acetamide]	7.27
Cc1nc(NC(=O)Cc2ncc(Oc3ncnc4ccc(F)cc34)cc2F)cc(C(C)(C)C)n1 [Compound 53, N-(6-(tert-butyl)-2-methylpyrimidin-4-yl)-2-(3-fluoro-5-((6-fluoroquinazolin-4-yl)oxy)pyridin-2-yl)acetamide]	6.65
Cc1cc(CC(=O)Nc2cc(C(C)(C)C)ncn2)ccc1Oc1ncnc2ccc(F)cc12 [Compound 54, N-(6-(tert-butyl)pyrimidin-4-yl)-2-(4-((6-fluoroquinazolin-4-yl)oxy)-3-methylphenyl) acetamide]	7.27
Cc1cc(CC(=O)Nc2cc(C(C)(C)C)cnn2)ccc1Oc1ncnc2ccc(F)cc12 [Compound 55, N-(5-(tert-butyl)pyridazin-3-yl)-2-(4-((6-fluoroquinazolin-4-yl)oxy)-3-methylphenyl) acetamide]	7.61
CCN1CCC(Oc2ccc3ncnc(Oc4cnc(CC(=O)Nc5cnn(C(C)(C)C)c5)c(F)c4)c3c2)CC1 [Compound 56, N-(1-(tert-butyl)-1H-pyrazol-4-yl)-2-(5-((6-((1-ethylpiperidin-4-yl)oxy)quinazolin-4-yl)oxy)-3-fluoropyridin-2-yl)acetamide]	8.31
CN1CCC(Oc2ccc3ncnc(Oc4cnc(CC(=O)Nc5cc(C(C)(C)C)[nH]n5)c(F)c4)c3c2)CC1 [Compound 57, N-(5-(tert-butyl)-1H-pyrazol-3-yl)-2-(3-fluoro-5-((6-((1-methylpiperidin-4-yl)oxy)quinazolin-4-yl)oxy)pyridin-2-yl)acetamide]	> 8.60
CC(C)(C)c1cc(NC(=O)Cc2ncc(Oc3ncnc4ccc(OC5CCNCC5)cc34)cc2F)n[nH]1 [Compound 58, N-(5-(tert-butyl)-1H-pyrazol-3-yl)-2-(3-fluoro-5-((6-(piperidin-4-yloxy)quinazolin-4-yl)oxy)pyridin-2-yl)acetamide]	8.43
CN1CC[C@H](Oc2ccc3ncnc(Oc4cnc(CC(=O)Nc5cnn(C(C)(C)C)c5)c(F)c4)c3c2)C1 [Compound 59, (S)-N-(1-(tert-butyl)-1H-pyrazol-4-yl)-2-(3-fluoro-5-((6-((1-methylpyrrolidin-3-yl)oxy)quinazolin-4-yl)oxy)pyridin-2-yl)acetamide]	7.38
CN1CC[C@@H](Oc2ccc3ncnc(Oc4cnc(CC(=O)Nc5cnn(C(C)(C)C)c5)c(F)c4)c3c2)C1 [Compound 60, (R)-N-(1-(tert-butyl)-1H-pyrazol-4-yl)-2-(3-fluoro-5-((6-((1-methylpyrrolidin-3-yl)oxy)quinazolin-4-yl)oxy)pyridin-2-yl)acetamide]	7.34
CN1CCC(COc2ccc3ncnc(Oc4cnc(CC(=O)Nc5cnn(C(C)(C)C)c5)c(F)c4)c3c2)CC1 [Compound 61, N-(1-(tert-butyl)-1H-pyrazol-4-yl)-2-(3-fluoro-5-((6-((1-methylpiperidin-4-yl)methoxy)quinazolin-4-yl)oxy)pyridin-2-yl)acetamide]	7.88
CN1[C@@H]2CC[C@H]1C[C@@H](Oc1ccc3ncnc(Oc4cnc(CC(=O)Nc5cnn(C(C)(C)C)c5)c(F)c4)c3c1)C2 [Compound 62, N-(1-(tert-butyl)-1H-pyrazol-4-yl)-2-(3-fluoro-5-((6-(((1R,3r,5S)-8-methyl-8-azabicyclo [3.2.1]octan-3-yl)oxy)quinazolin-4-yl)oxy)pyridin-2-yl)acetamide]	7.88
CC(C)(C)n1cc(NC(=O)Cc2ncc(Oc3ncnc4ccc(O[C@@H]5CCOC5)cc34)cc2F)cn1 [Compound 63, (R)-N-(1-(tert-butyl)-1H-pyrazol-4-yl)-2-(3-fluoro-5-((6-((tetrahydrofuran-3-yl)oxy)quinazolin-4-yl)oxy)pyridin-2-yl)acetamide]	7.43
CC(C)(C)n1cc(NC(=O)Cc2ncc(Oc3ncnc4ccc(O[C@H]5CCOC5)cc34)cc2F)cn1 [Compound 64, (S)-N-(1-(tert-butyl)-1H-pyrazol-4-yl)-2-(3-fluoro-5-((6-((tetrahydrofuran-3-yl)oxy)quinazolin-4-yl)oxy)pyridin-2-yl)acetamide]	7.17
CC(C)(C)c1cc(NC(=O)Cc2ccc(Oc3ccnc4ccc(S(C)(=N)=O)cc34)cc2F)[nH]n1 (stereo not shown) [Compound 65, N-(5-(tert-butyl)-1H-pyrazol-3-yl)-2-(2-fluoro-4-((6-(S-methylsulfonimidoyl)quinolin-4-yl)oxy)phenyl) acetamide]	> 8.60
CC(C)(C)n1cc(NC(=O)Cc2ccc(Oc3ccnc4ccc(S5(=O)=NCCC5)cc34)cc2F)cn1 (stereo not shown) [Compound 66, N-(1-(tert-butyl)-1H-pyrazol-4-yl)-2-(2-fluoro-4-((6-(1-oxido-4,5-dihydro-3H-1λ^6-isothiazol-1-yl)quinolin-4-yl)oxy)phenyl) acetamide]	> 8.60
CC(C)(C)n1cc(NC(=O)Cc2ccc(Oc3ccnc4ccc(S5(=O)=NCCCC5)cc34)cc2F)cn1 (stereo not shown) [Compound 67, N-(1-(tert-butyl)-1H-pyrazol-4-yl)-2-(2-fluoro-4-((6-(1-oxido-3,4,5,6-tetrahydro-1λ^6,2-thiazin-1-yl)quinolin-4-yl)oxy)phenyl)acetamide]	> 8.60

Structure (SMILES)	pIC50
CC(C)(C)n1cc(NC(=O)Cc2ccc(Oc3ccnc4ccc(NS(C)(=O)=O)cc34)cc2F)cn1 [Compound 68, N-(1-(tert-butyl)-1H-pyrazol-4-yl)-2-(2-fluoro-4-((6-(methylsulfonamido)quinolin-4-yl)oxy)phenyl)acetamide]	> 8.60
CC(C)(C)n1cc(NC(=O)Cc2ccc(Oc3ccnc4ccc(S(C)(=O)=NC#N)cc34)cc2F)cn1 (stereo not shown) [Compound 71, N-(1-(tert-butyl)-1H-pyrazol-4-yl)-2-(4-((6-(N-cyano-S-methylsulfonimidoyl)quinolin-4-yl)oxy)-2-fluorophenyl)acetamide]	8.04
CC(C)(C)n1cc(NC(=O)Cc2ccc(Oc3ccnc4ccc(S(=N)(=O)C5CC5)cc34)cc2F)cn1 (stereo not shown) [Compound 72, N-(1-(tert-butyl)-1H-pyrazol-4-yl)-2-(4-((6-(cyclopropanesulf-onimidoyl)quinolin-4-yl)oxy)-2-fluorophenyl) acetamide]	> 8.60
CCS(=N)(=O)c1ccc2nccc(Oc3ccc(CC(=O)Nc4cnn(C(C)(C)C)c4)c(F)c3)c2c1 (stereo not shown) [Compound 73, N-(1-(tert-butyl)-1H-pyrazol-4-yl)-2-(4-((6-(ethylsulfonimidoyl)quinolin-4-yl)oxy)-2-fluorophenyl) acetamide]	8.49
CCS(=O)(=NC)c1ccc2nccc(Oc3ccc(CC(=O)Nc4cnn(C(C)(C)C)c4)c(F)c3)c2c1 (stereo not shown) [Compound 74, N-(1-(tert-butyl)-1H-pyrazol-4-yl)-2-(2-fluoro-4-((6-(N-methylethylsulfonimidoyl)quinolin-4-yl)oxy)phenyl)acetamide]	8.40
CC(C)(C)n1cc(NC(=O)Cc2ccc(Oc3ccnc4ccc(CS(C)(=O)=O)cc34)cc2F)cn1 [Compound 75, N-(1-(tert-butyl)-1H-pyrazol-4-yl)-2-(2-fluoro-4-((6-((methylsulfonyl)methyl)quinolin-4-yl)oxy)phenyl)acetamide]	> 8.60
Cc1cc(CC(=O)Nc2cnn(C(C)(C)C)c2)ccc1Oc1ccnc2ccc(S(C)(=N)=O)cc12 (stereo not shown) [Compound 76, N-(1-(tert-butyl)-1H-pyrazol-4-yl)-2-(3-methyl-4-((6-(S-methylsulfonimidoyl)quinolin-4-yl)oxy)phenyl) acetamide]	> 8.60
CN=S(C)(=O)c1ccc2nccc(Oc3ccc(CC(=O)Nc4cnn(C(C)(C)C)c4)cc3C)c2c1 (stereo not shown) [Compound 77, N-(1-(tert-butyl)-1H-pyrazol-4-yl)-2-(4-((6-(N,S-dimethylsulfonimidoyl)quinolin-4-yl)oxy)-3-methylphenyl)acetamide]	> 8.60
CN1CCC(Oc2ccc3nccc(Oc4ccc(CC(=O)Nc5cnn(C(C)(C)C)c5)c(F)c4)c3c2)CC1 [Compound 79, N-(1-(tert-butyl)-1H-pyrazol-4-yl)-2-(2-fluoro-4-((6-((1-methyl-piperidin-4-yl)oxy)quinolin-4-yl)oxy)phenyl) acetamide]	> 8.60
CC(C)(C)n1cc(NC(=O)Cc2ncc(Oc3ccnc4ccc(OC5CCNCC5)cc34)cc2F)cn1 [Compound 80, N-(1-(tert-butyl)-1H-pyrazol-4-yl)-2-(3-fluoro-5-((6-(piperidin-4-yloxy)quinolin-4-yl)oxy)pyridin-2-yl)acetamide]	8.46
CC(C)(C)n1cc(NC(=O)Cc2ccc(Oc3ccnc4ccc(OC5CCNCC5)cc34)cc2F)cn1 [Compound 81, N-(1-(tert-butyl)-1H-pyrazol-4-yl)-2-(2-fluoro-4-((6-(piperidin-4-yloxy)quinolin-4-yl)oxy)phenyl) acetamide]	> 8.60
Cc1cc(CC(=O)Nc2cnn(C(C)(C)C)c2)ccc1Oc1ncnc2ccc(OC3CCNCC3)cc12 [Compound 85, N-(1-(tert-butyl)-1H-pyrazol-4-yl)-2-(3-methyl-4-((6-(piperidin-4-yloxy)quinazolin-4-yl)oxy)phenyl) acetamide]	8.29
Cc1cc(CC(=O)Nc2cc(C(C)(C)C)n[nH]2)ccc1Oc1ccnc2ccc(S(C)(=O)=O)cc12 [Compound 87, N-(5-(tert-butyl)-1H-pyrazol-3-yl)-2-(3-methyl-4-((6-(methylsulfonyl)quinolin-4-yl)oxy)phenyl)acetamide]	> 8.60
Cc1cc(CC(=O)Nc2cc(C(C)(C)C)n[nH]2)ccc1Oc1ccnc2ccc(S(C)(=N)=O)cc12 (stereo not shown) [Compound 88, N-(5-(tert-butyl)-1H-pyrazol-3-yl)-2-(3-methyl-4-((6-(S-methylsulfonimidoyl)quinolin-4-yl)oxy)phenyl)acetamide]	> 8.60
CC(C)(C)n1cc(NC(=O)Cc2ccc(Oc3ccnc4ccc(S(C)(=O)=O)cc34)c(Cl)c2)cn1 [Compound 89, N-(1-(tert-butyl)-1H-pyrazol-4-yl)-2-(3-chloro-4-((6-(methylsulfonyl)quinolin-4-yl)oxy)phenyl)acetamide]	> 8.60
